Experimental data as given in ChEMBL document CHEMBL5532659, “Design, Synthesis, and Evaluation of Cephamycin-Based Antisporulation Agents targeting Clostridioides difficile” (J Med Chem, 2024).
≈ marks a conversion by molar mass, not a printed value. Calls of active or inactive are those of the source. No cut-off for these calls is given here.

Experiments:
Clostridioides difficile [1] = assay: Anti-sporulation activity against Clostridium difficile M7404 assessed as fold reduction in spore count incubated overnight by absorbance based assay relative to control; format: functional
Acinetobacter baumannii = assay: Antimicrobial activity against Acinetobacter baumannii ATCC 19603 assessed as microbial growth inhibition incubated for 18 hrs; format: functional
Clostridioides difficile [2] = assay: Antimicrobial activity against Clostridium difficile assessed as microbial growth inhibition incubated for 18 hrs; format: functional
Cryptococcus neoformans = assay: Antimicrobial activity against Cryptococcus neoformans ATCC 208821 assessed as microbial growth inhibition incubated for 36 hrs by resazurin dye based assay; format: functional
[3] = Cytotoxicity against HEK293 cells incubated for 20 hrs by resazurin dye based assay; format: toxicity, cell-based; conditions: human
Klebsiella pneumoniae = assay: Antimicrobial activity against multidrug-resistant Klebsiella pneumoniae ATCC 700603 assessed as microbial growth inhibition incubated for 18 hrs; format: functional
Escherichia coli = assay: Antimicrobial activity against Escherichia coli ATCC 25922 assessed as microbial growth inhibition incubated for 18 hrs; format: functional
[4] = Inhibition of Clostridium difficile SpoVD using Boc-FL as substrate preincubated for 30 mins followed by substrate addition measured after 30 mins by FP assay; design: species or system Clostridioides difficile
Candida albicans = assay: Antimicrobial activity against Candida albicans ATCC 90028 assessed as microbial growth inhibition incubated for 36 hrs by resazurin dye based assay; format: functional
Pseudomonas aeruginosa = assay: Antimicrobial activity against Pseudomonas aeruginosa ATCC 27853 assessed as microbial growth inhibition incubated for 18 hrs; format: functional
Erythrocyte = assay: Hemolytic activity in human RBC incubated for 70 mins by absorbance based assay; format: toxicity, cell-based; conditions: 1.167 h
Staphylococcus aureus = assay: Antimicrobial activity against methicillin-resistant Staphylococcus aureus ATCC 43300 assessed as microbial growth inhibition incubated for 18 hrs; format: functional
Clostridioides difficile [5] = assay: Anti-sporulation activity against Clostridium difficile M7404 infected in C57BL/6J mouse model assessed as reduction in spore shedding in faeces at 50 ug/ml pre-infected for 6 hrs followed by compound treatment measured for 2 to 4 days post-infection; format: functional, organism-based; conditions: dose 50.0 µg/ml, time 42-90 hrs

SMILES	fold change (FC) (Clostridioides difficile [1])	MIC50 (Acinetobacter baumannii) [µg/mL]	MIC50 (Clostridioides difficile [2]) [µg/mL]	MIC50 (Cryptococcus neoformans) [µg/mL]	CC50 at 20 h [3] [µg/mL]	MIC50 (Klebsiella pneumoniae) [µg/mL]	MIC50 (Escherichia coli) [µg/mL]	IC50 [4] [nM]	MIC50 (Candida albicans) [µg/mL]	MIC50 (Pseudomonas aeruginosa) [µg/mL]	HC10 (Erythrocyte) [µg/mL]	MIC50 (Staphylococcus aureus) [µg/mL]	Activity (Clostridioides difficile [5])
CO[C@@]1(NC(=O)Cn2cc(-c3cccc(C(=O)O)c3)nn2)C(=O)N2C(C(=O)O)=C(CSc3nnnn3C)CS[C@@H]21	1000	> 32	5 (≈ 8.51 µM)	> 32	> 32	32 (≈ 54.5 µM)	8 (≈ 13.6 µM)	69	> 32	> 32	> 32	32 (≈ 54.5 µM)	
CO[C@@]1(NC(=O)Cn2cc(-c3ccc(C(=O)O)cc3)nn2)C(=O)N2C(C(=O)O)=C(CSc3nnnn3C)CS[C@@H]21	1000	> 32	10 (≈ 17 µM)	> 32	> 32	32 (≈ 54.5 µM)	32 (≈ 54.5 µM)	115	> 32	> 32	> 32	32 (≈ 54.5 µM)	
CO[C@@]1(NC(=O)Cn2cc(-c3cccc4cccnc34)nn2)C(=O)N2C(C(=O)O)=C(CSc3nnnn3C)CS[C@@H]21	100	> 32	> 40	> 32	> 32	> 32	> 32	472	> 32	> 32	> 32	32 (≈ 53.8 µM)	
COc1ccc(-c2cn(CC(=O)N[C@]3(OC)C(=O)N4C(C(=O)O)=C(CSc5nnnn5C)CS[C@@H]43)nn2)cc1	100	> 32	10 (≈ 17.4 µM)	> 32	> 32	> 32	32 (≈ 55.8 µM)	> 15000	> 32	> 32	> 32	32 (≈ 55.8 µM)	
CO[C@@]1(NC(=O)Cn2cc(C3CCCCC3)nn2)C(=O)N2C(C(=O)O)=C(CSc3nnnn3C)CS[C@@H]21	>100000	> 32	5 (≈ 9.1 µM)	> 32	> 32	> 32	32 (≈ 58.2 µM)	90	> 32	> 32	10	32 (≈ 58.2 µM)	
CO[C@@]1(NC(=O)Cn2cc(C(=O)O)nn2)C(=O)N2C(C(=O)O)=C(CSc3nnnn3C)CS[C@@H]21	100	> 32	20 (≈ 39.1 µM)	> 32	> 32	> 32	16 (≈ 31.3 µM)		> 32	> 32	> 32	≤ 0.25	
CO[C@@]1(NC(=O)Cn2cc(-c3ccccc3)nn2)C(=O)N2C(C(=O)O)=C(CSc3nnnn3C)CS[C@@H]21	>100000	> 32	5 (≈ 9.2 µM)	> 32	> 32	32 (≈ 58.9 µM)	32 (≈ 58.9 µM)	89	> 32	> 32	> 32	32 (≈ 58.9 µM)	Active
CO[C@@]1(NC(=O)Cn2cc(-c3ccc(C#N)cc3)nn2)C(=O)N2C(C(=O)O)=C(CSc3nnnn3C)CS[C@@H]21	>100000	> 32	> 40	> 32	> 32	> 32	32 (≈ 56.3 µM)	72	> 32	> 32	> 32	> 32	
CO[C@@]1(NC(=O)Cn2cc(CCC(C)C)nn2)C(=O)N2C(C(=O)O)=C(CSc3nnnn3C)CS[C@@H]21	1000	> 32	5 (≈ 9.3 µM)	> 32	16.1 (≈ 29.9 µM)	> 32	32 (≈ 59.5 µM)	142	> 32	> 32	> 32	32 (≈ 59.5 µM)	
CO[C@@]1(NC(=O)Cn2cc(-c3cccc4ccccc34)nn2)C(=O)N2C(C(=O)O)=C(CSc3nnnn3C)CS[C@@H]21	>100000	> 32	40 (≈ 67.4 µM)	> 32	> 32	> 32	32 (≈ 53.9 µM)	86	> 32	> 32	> 32	8 (≈ 13.5 µM)	
CO[C@@]1(NC(=O)Cn2cc(C(C)(C)O)nn2)C(=O)N2C(C(=O)O)=C(CSc3nnnn3C)CS[C@@H]21	100	> 32	40 (≈ 76.1 µM)	> 32	0.7 (≈ 1.33 µM)	32 (≈ 60.9 µM)	32 (≈ 60.9 µM)		> 32	> 32	17	32 (≈ 60.9 µM)	
CO[C@@]1(NC(=O)Cn2cc(-c3cccc(F)c3)nn2)C(=O)N2C(C(=O)O)=C(CSc3nnnn3C)CS[C@@H]21	1000	> 32	5 (≈ 8.9 µM)	> 32	13.2 (≈ 23.5 µM)	> 32	32 (≈ 57 µM)	131	> 32	> 32	> 32	32 (≈ 57 µM)	
CO[C@@]1(NC(=O)Cn2cc(CO)nn2)C(=O)N2C(C(=O)O)=C(CSc3nnnn3C)CS[C@@H]21	10	> 32	10 (≈ 20.1 µM)	> 32	> 32	16 (≈ 32.2 µM)	16 (≈ 32.2 µM)	369	> 32	> 32	> 32	32 (≈ 64.3 µM)	
CO[C@@]1(NC(=O)C2SC(=C(C(N)=O)C(=O)O)S2)C(=O)N2C(C(=O)O)=C(CSc3nnnn3C)CS[C@@H]21 (some centres undefined) [CEFOTETAN]	10000	> 32	20 (≈ 34.7 µM)	> 32	> 32	> 32	4 (≈ 6.95 µM)	15	> 32	> 32	> 32	> 32	
CO[C@@]1(NC(=O)Cn2cc(-c3ccc4ccccc4c3)nn2)C(=O)N2C(C(=O)O)=C(CSc3nnnn3C)CS[C@@H]21	>100000	> 32	20 (≈ 33.7 µM)	> 32	> 32	> 32	> 32	54	> 32	> 32	> 32	32 (≈ 53.9 µM)	
